Data on two compounds can be found in PMC6219668 (Oncotarget, 2018).

Where “and” joins values, the source holds several entries; their conditions need not be identical. Equal entries are not always repeated.

One assay deals with CAMA-1. Briefly: cells. It is filed as cell-based. The following applies: Homo sapiens; CAMA-1, ER+ BC, dominant CDK4; read-out: IC50, mean ± SD.
In another assay the test system is MCF-7. The assay can be described thus: cells. In kind it is cell-based. Particulars: Homo sapiens, MCF7; MCF-7, ER+ BC, dominant CDK4; read-out: IC50, mean ± SD.
A further assay concerns REH. The assay can be described thus: cells. Particulars: Homo sapiens, ALL, dominant CDK6, read-out: IC50, mean ± SD. In kind it is cell-based.
In another assay the test system is SEM cells. The assay can be described thus: cells. In kind it is cell-based. Particulars: ALL, dominant CDK6, read-out: IC50, mean ± SD.
The test system of a further assay is Pfeiffer. The assay can be described thus: cells. In kind it is cell-based. The following applies: Homo sapiens, DLBCL, dominant CDK6, read-out: IC50, mean ± SD.
A further assay concerns NCI-H1975. Briefly: cells. It is filed as cell-based. The following applies: Homo sapiens, NCI-H1975, read-out: Percent inhibition.
Another assay has as its system Rb phosphorylation. Briefly: animal or person. In kind it is in vivo. The following applies: Rattus norvegicus, JeKo-1, read-out: ppRb inhibition, range.
The test system of the next assay is HMEX1906. It is filed as in vivo. Particulars: mouse, in vivo, 250 mg/kg.
For another assay, the system named is HBCx-14. It is filed as in vivo. Particulars: HBCx-14, Breast, TNBC, Rb absent; 125 mg/kg bid × 21.
The next assay relates to HBCx-10. In kind it is in vivo. The following applies: HBCx-10, Breast, TNBC, Rb absent; 125 mg/kg bid × 21.
A further assay concerns HBRX1004. In kind it is in vivo. Particulars: HBRX1004, Breast, TNBC, Rb present; 250 mg/kg qd.
In a further assay the test system is HPAX1633. It is filed as in vivo. Particulars: HPAX1633, Pancreatic, Rb present; 250 mg/kg qd.
A further assay has as its system SK-N-SH. The assay can be described thus: cells. It is filed as cell-based. The following applies: Homo sapiens, 72 h.
A further assay relates to CHP-212. Briefly: cells. In kind it is cell-based. The following applies: Homo sapiens, CHP-212, 72 h.
The next assay concerns NB1. The assay can be described thus: cells. In kind it is cell-based. The following applies: Homo sapiens, NB1, 72 h.
The subject of a further assay is NCI-H1573. The assay can be described thus: cells. In kind it is cell-based. The following applies: Homo sapiens, NCI-H1573, 72 h.
A further assay has as its system HCC-4006. The assay can be described thus: cells. It is filed as cell-based. Particulars: Homo sapiens, HCC4006; HCC-4006, 72 h.
The test system of the next assay is PC-14. The assay can be described thus: cells. In kind it is cell-based. The following applies: Homo sapiens, PC-14, 72 h.
For assay [1], the system named is KYSE30. The assay can be described thus: cells. In kind it is cell-based. Particulars: Homo sapiens, KYSE-30; KYSE30, 72 h.
The subject of assay [2] is LnCAP. The assay can be described thus: cells. It is filed as cell-based. The following applies: Homo sapiens, 72 h.
For a further assay, the system named is VCAP. The assay can be described thus: cells. In kind it is cell-based. The following applies: Homo sapiens, 72 h.
The subject of assay [3] is A-375. Briefly: cells. It is filed as cell-based. The following applies: Homo sapiens, A-375, 72 h.
Assay [4] relates to SK-MEL-2. Briefly: cells. In kind it is cell-based. Particulars: Homo sapiens, SK-MEL-2, 72 h.
For the next assay, the system named is UACC-62. The assay can be described thus: cells. It is filed as cell-based. Particulars: Homo sapiens, UACC-62, 72 h.
The test system of assay [5] is A2058. The assay can be described thus: cells. It is filed as cell-based. Particulars: Homo sapiens, A2058, 72 h.
A further assay concerns KELLY. The assay can be described thus: cells. In kind it is cell-based. The following applies: 72 h.
The next assay relates to T-47d. Briefly: cells. It is filed as cell-based. The following applies: Homo sapiens, T47D, 72 h.
Another assay has as its system MGH051. Briefly: cells. In kind it is cell-based. Particulars: MGH051, 72 h.
In the next assay the test system is NCI-H460. Briefly: cells. The following applies: Homo sapiens, NCI-H460, 72 h. It is filed as cell-based.
The subject of another assay is A549. Briefly: cells. The following applies: Homo sapiens, A549, 72 h. It is filed as cell-based.
The next assay concerns COR-L105. Briefly: cells. It is filed as cell-based. Particulars: Homo sapiens, COR-L105, 72 h.
For another assay, the system named is NCI-H2030. Briefly: cells. It is filed as cell-based. The following applies: Homo sapiens, NCI-H2030, 72 h.
In the next assay the test system is NCI-H23. Briefly: cells. It is filed as cell-based. The following applies: Homo sapiens, NCI-H23, 72 h.
The subject of the next assay is KYSE150. The assay can be described thus: cells. It is filed as cell-based. Particulars: Homo sapiens, KYSE-150; KYSE150, 72 h.
A further assay relates to TE-10. Briefly: cells. In kind it is cell-based. The following applies: Homo sapiens, TE-10, 72 h.
The test system of assay [6] is KYSE30. Briefly: cells. In kind it is cell-based. The following applies: Homo sapiens, KYSE-30; KYSE30, 72 h. The source holds these as a separate data set.
The subject of assay [7] is LnCAP. The assay can be described thus: cells. In kind it is cell-based. Particulars: Homo sapiens, 72 h. The source holds these as a separate data set.
The next assay has as its system SK-MEL-30. The assay can be described thus: cells. In kind it is cell-based. The following applies: Homo sapiens, SK-MEL-30, 72 h.
The next assay has as its system hs944T. Briefly: cells. In kind it is cell-based. The following applies: 72 h.
Assay [8] relates to A-375. The assay can be described thus: cells. In kind it is cell-based. Particulars: Homo sapiens, A-375, 72 h. This is another data set of the same source.
Assay [9] has as its system SK-MEL-2. The assay can be described thus: cells. In kind it is cell-based. Particulars: Homo sapiens, SK-MEL-2, 72 h. This is another data set of the same source.
Assay [10] has as its system A2058. Briefly: cells. It is filed as cell-based. Particulars: Homo sapiens, A2058, 72 h. The source holds these as a separate data set.
A further assay relates to WM-115. Briefly: cells. In kind it is cell-based. The following applies: Homo sapiens, WM-115, 72 h.

Experimental for HMEX1906: Animals were housed in a temperature-
In all studies, tumor volume was calculated
For using the following formula: (length × width2)/2. Percent
Data are presented as the percent

For `CC(=O)c1c(C)c2cnc(Nc3ccc(N4CCNCC4)cn3)nc2n(C2CCCC2)c1=O` [Palbociclib, reference compound], the IC50 was determined as 50 ± 24 µM in the assay on CAMA-1; 30 ± 18 µM in the assay on MCF-7; 60 ± 17 µM with REH; 87 ± 28 µM in the assay on SEM cells; 89 ± 32 µM in the assay on Pfeiffer.
As for `CN(C)C(=O)c1cc2cnc(Nc3ccc(N4CCNCC4)cn3)nc2n1C1CCCC1` [Ribociclib, 7-cyclopentyl-2-(5-piperazin-1-yl-pyridin-2-ylamino)-7H-pyrrolo[2,3-d]pyrimidine-6-carboxylic acid dimethylamide], the inhibition at 0.08 µM in the assay with NCI-H1975 is 14%. The inhibition at 1.25 µM in the assay on NCI-H1975 is 42%. In the assay with NCI-H1975, the inhibition at 5 µM was 54%. Further, in the assay with NCI-H1975, the inhibition at 10 µM came to 61%. Besides, the inhibition at […] with NCI-H1975 is 20% and 28% and 37% and 49%. The inhibition at 75 mg/kg in the assay on Rb phosphorylation lay within 75 to 90%. The inhibition at 150 mg/kg with Rb phosphorylation fell in the range of 97 to 100%. The T/C is reported as -12 with HMEX1906; 92 in the assay with HBCx-14; 82 in the assay on HBCx-10; 10 in the assay with HBRX1004; 30 in the assay with HPAX1633. Further, the IC50 in the assay with SK-N-SH stood at 0.27 µM; in the assay with CHP-212 it was 0.28 µM; with NB1, 0.37 µM; in the assay on NCI-H1573 it was 0.61 µM; in the assay on HCC-4006 it was 0.87 µM; in the assay with PC-14, 6.98 µM. The IC50 in the assay on KYSE30 [1] was 4.06 µM; in the assay on LnCAP [2], 0.18 µM; in the assay on VCAP, above 10 µM; with A-375 [3], 2.68 µM; with SK-MEL-2 [4], 4.81 µM; with UACC-62, 9.7 µM. Moreover, the IC50 in the assay with A2058 [5] was above 10 µM; in the assay on KELLY, 0.3 µM; in the assay on T-47d, above 10 µM; in the assay on MGH051 it was above 10 µM; with NCI-H460, above 10 µM; with A549 it was above 10 µM. The IC50 in the assay on COR-L105 is above 10 µM; with NCI-H2030 it was above 10 µM; in the assay with NCI-H23 it was above 10 µM; in the assay on KYSE150, 6.7 µM; in the assay with TE-10 it was above 10 µM; in the assay on KYSE30 [6] it was above 10 µM. The IC50 in the assay on LnCAP [7] was 1 µM; with SK-MEL-30, above 10 µM; in the assay with hs944T it was above 10 µM; in the assay with A-375 [8] it was above 10 µM; in the assay with SK-MEL-2 [9], above 10 µM; in the assay on A2058 [10] it was above 10 µM. Also, the IC50 in the assay on WM-115 was above 10 µM.
